Experimental data published in patent US20230086007A1, “USE OF DENATONIUM BENZOATE AS A SEED TREATMENT FOR CROPS AS BIRD AND/OR INSECT REPELLENT” (KWS SAAT SE & Co. KGaA, priority 2020, published 2023).
Values joined by “and” are separate entries in the source; they are usually repeats but may differ in a detail not shown here. Equal entries are not always repeated.

Experiments:
[1] = tested on: maize plants; assay: Wireworm field trial in Italy: phytotoxicity (PHYGEN) and vigor (VIGOR); conditions: for PHYGEN phytotoxicity, stage E: at emergence; for VIGOR, stage E / VIGOR, stage V3 / VIGOR, stage V5: ratings from 1-10 (10 is best)
Excerpt: Evaluation took place at emergence (E), at V3 stage (=3 leaves unfolded) and at V5 stage (=5 leaves unfolded). The following characteristics have been phenotyped: phytotoxicity (PHYGEN) at stage E, V3 and V5 in % per plot, vigor (VIGOR) at stage E, V3 and V5 in ratings from 1-10 (10 is best), insect damage (DAMINS) at stage V5 in plants per row (left DAMINS column in Table 7) and in % per row (right DAMINS column in Table 7).

[2] = LC-MS-MS determination of Bitrex in hybrid rye seedlings; format: in vivo
Procedure: Additional experiments in hybrid rye show also excellent systemic uptake and distribution of Bitrex. Seeds of a hybrid rye variety have been treated in application A with KintoPlus 150 ml/100 kg seeds and Bitrex 75 g/100 kg seeds and in application B with KintoPlus 150 ml/100 kg seeds and Bitrex 150 g/100 kg seeds. Seeds have been sown in longitudinal plots of 15 qm in four repetitions. 3 weeks after sowing seedlings have been harvested (40 plants per plot) and leaf material and root tissue have been analyzed using Liquid Chromatography with tandem mass spectrometry (LC-MS-MS) as described above.

[3] = tested on: corn seeds; assay: Phytotoxicity: germination rate (KF) of treated corn seeds; conditions: for ΔKF: vs no Bitrex
Procedure: In order to evaluate the phytotoxicity of different corn seed treatments, safety tests were conducted. Germination rates of corn seeds treated with various concentrations of denatonium benzoate (Bitrex®) [in g per unit, where 1 unit is 50.000 seeds] were counted after five days at 25° C. Cold test germination rates (CT) were counted after 7 days at 10° C. and 5 days at 25° C. The treatments were compared to untreated seeds.
KF=germination rates counted after 5 days at 25° C. and CT=cold test germination rates counted after 7 days at 10° C. and 5 days at 25° C.

[4] = corn Amavit, chemical no, Bitrex 0.2 g/u
[5] = corn Amavit, chemical no, Bitrex 0.5 g/u
[6] = corn Amavit, chemical no, Bitrex 1.0 g/u
[7] = corn Amavit, chemical no, Bitrex 2.0 g/u
[8] = corn Amavit, chemical no, Bitrex 5.0 g/u
[9] = corn Amavit, with MaximXL, Bitrex 0.2 g/u
[10] = corn Amavit, with MaximXL, Bitrex 0.5 g/u
[11] = corn Amavit, with MaximXL, Bitrex 1.0 g/u
[12] = corn Amavit, with MaximXL, Bitrex 2.0 g/u
[13] = corn Amavit, with MaximXL, Bitrex 5.0 g/u
[14] = corn Amavit, with RedigoM, Bitrex 0.2 g/u
[15] = corn Amavit, with RedigoM, Bitrex 0.5 g/u
[16] = corn Amavit, with RedigoM, Bitrex 1.0 g/u
[17] = corn Amavit, with RedigoM, Bitrex 2.0 g/u
[18] = corn Amavit, with RedigoM, Bitrex 5.0 g/u
[19] = corn KXB6432, chemical no, Bitrex 0.2 g/u
[20] = corn KXB6432, chemical no, Bitrex 0.5 g/u
[21] = corn KXB6432, chemical no, Bitrex 1.0 g/u
[22] = corn KXB6432, chemical no, Bitrex 2.0 g/u
[23] = corn KXB6432, chemical no, Bitrex 5.0 g/u
[24] = corn KXB6432, with MaximXL, Bitrex 0.2 g/u
[25] = corn KXB6432, with MaximXL, Bitrex 0.5 g/u
[26] = corn KXB6432, with MaximXL, Bitrex 1.0 g/u
[27] = corn KXB6432, with MaximXL, Bitrex 2.0 g/u
[28] = corn KXB6432, with MaximXL, Bitrex 5.0 g/u
[29] = corn KXB6432, with RedigoM, Bitrex 0.2 g/u
[30] = corn KXB6432, with RedigoM, Bitrex 0.5 g/u
[31] = corn KXB6432, with RedigoM, Bitrex 1.0 g/u
[32] = corn KXB6432, with RedigoM, Bitrex 2.0 g/u
[33] = corn KXB6432, with RedigoM, Bitrex 5.0 g/u
[34] = ø of varieties and chemicals, Bitrex 0.2 g/u
[35] = ø of varieties and chemicals, Bitrex 0.5 g/u
[36] = ø of varieties and chemicals, Bitrex 1.0 g/u
[37] = ø of varieties and chemicals, Bitrex 2.0 g/u
[38] = ø of varieties and chemicals, Bitrex 5.0 g/u
[39] = ø of varieties, chemical no, Bitrex 0.2 g/u
[40] = ø of varieties, chemical no, Bitrex 0.5 g/u
[41] = ø of varieties, chemical no, Bitrex 1.0 g/u
[42] = ø of varieties, chemical no, Bitrex 2.0 g/u
[43] = ø of varieties, chemical no, Bitrex 5.0 g/u
[44] = ø of varieties, with MaximXL, Bitrex 0.2 g/u
[45] = ø of varieties, with MaximXL, Bitrex 0.5 g/u
[46] = ø of varieties, with MaximXL, Bitrex 1.0 g/u
[47] = ø of varieties, with MaximXL, Bitrex 2.0 g/u
[48] = ø of varieties, with MaximXL, Bitrex 5.0 g/u
[49] = ø of varieties, with RedigoM, Bitrex 0.2 g/u
[50] = ø of varieties, with RedigoM, Bitrex 0.5 g/u
[51] = ø of varieties, with RedigoM, Bitrex 1.0 g/u
[52] = ø of varieties, with RedigoM, Bitrex 2.0 g/u
[53] = ø of varieties, with RedigoM, Bitrex 5.0 g/u

CC[N+](CC)(CC(=O)Nc1c(C)cccc1C)Cc1ccccc1.O=C([O-])c1ccccc1 [Bitrex, N-Benzyl-2-(2,6-dimethylanilino)-N, N-diethyl-2-oxoethan-1-aminium benzoate]
PHYGEN phytotoxicity, stage V3 ([1]; 5 g Bitrex per 50,000 seeds): 0 % per plot
PHYGEN phytotoxicity, stage V5 ([1]; 5 g Bitrex per 50,000 seeds): 0 % per plot
PHYGEN phytotoxicity, stage E ([1]; 5 g Bitrex per 50,000 seeds): 0 % per plot
VIGOR, stage E ([1]; 5 g Bitrex per 50,000 seeds): 10
VIGOR, stage V3 ([1]; 5 g Bitrex per 50,000 seeds): 10
VIGOR, stage V5 ([1]; 5 g Bitrex per 50,000 seeds): 10
PHYGEN phytotoxicity, stage V3 ([1]; 10 g Bitrex per 50,000 seeds): 0 % per plot
PHYGEN phytotoxicity, stage V5 ([1]; 10 g Bitrex per 50,000 seeds): 0 % per plot
PHYGEN phytotoxicity, stage E ([1]; 10 g Bitrex per 50,000 seeds): 0 % per plot
VIGOR, stage E ([1]; 10 g Bitrex per 50,000 seeds): 10
VIGOR, stage V3 ([1]; 10 g Bitrex per 50,000 seeds): 10
VIGOR, stage V5 ([1]; 10 g Bitrex per 50,000 seeds): 10
PHYGEN phytotoxicity, stage V3 ([1]; 20 g Bitrex per 50,000 seeds): 0 % per plot
PHYGEN phytotoxicity, stage V5 ([1]; 20 g Bitrex per 50,000 seeds): 0 % per plot
PHYGEN phytotoxicity, stage E ([1]; 20 g Bitrex per 50,000 seeds): 0 % per plot
VIGOR, stage E ([1]; 20 g Bitrex per 50,000 seeds): 10
VIGOR, stage V3 ([1]; 20 g Bitrex per 50,000 seeds): 10
VIGOR, stage V5 ([1]; 20 g Bitrex per 50,000 seeds): 10
negative effect on plant vitality with respect to phytotoxicity and plant vigor ([1]; Bitrex applied at high concentration (5-20 g per 50,000 seeds), field trial): has not been observed
concentration of Bitrex in kernels ([2]; hybrid rye): up to 460,000 ng/g
Mean Bitrex concentration ([2]; hybrid rye seedlings 3 weeks after sowing, root, application B: KintoPlus 150 ml/100 kg seeds and Bitrex 150 g/100 kg seeds): 21169.7 ng/g and 25378.0 ng/g and 18336.0 ng/g and 15826.3 ng/g
Mean Bitrex concentration ([2]; hybrid rye, kernel, application A: KintoPlus 150 ml/100 kg seeds and Bitrex 75 g/100 kg seeds): 460473.8 ng/g
KF germination rate, 5 days at 25° C. [3, 4]: 98.0%
KF germination rate, 5 days at 25° C. [3, 5]: 96.5%
KF germination rate, 5 days at 25° C. [3, 6]: 97.5%
KF germination rate, 5 days at 25° C. [3, 7]: 97.0%
KF germination rate, 5 days at 25° C. [3, 8]: 98.0%
KF germination rate, 5 days at 25° C. [3, 9]: 98.0%
KF germination rate, 5 days at 25° C. [3, 10]: 98.0%
KF germination rate, 5 days at 25° C. [3, 11]: 96.5%
KF germination rate, 5 days at 25° C. [3, 12]: 95.5%
KF germination rate, 5 days at 25° C. [3, 13]: 97.5%
KF germination rate, 5 days at 25° C. [3, 14]: 100.0%
KF germination rate, 5 days at 25° C. [3, 15]: 97.5%
KF germination rate, 5 days at 25° C. [3, 16]: 96.0%
KF germination rate, 5 days at 25° C. [3, 17]: 96.5%
KF germination rate, 5 days at 25° C. [3, 18]: 99.5%
KF germination rate, 5 days at 25° C. [3, 19]: 92.5%
KF germination rate, 5 days at 25° C. [3, 20]: 96.5%
KF germination rate, 5 days at 25° C. [3, 21]: 96.5%
KF germination rate, 5 days at 25° C. [3, 22]: 96.0%
KF germination rate, 5 days at 25° C. [3, 23]: 95.5%
KF germination rate, 5 days at 25° C. [3, 24]: 98.5%
KF germination rate, 5 days at 25° C. [3, 25]: 99.0%
KF germination rate, 5 days at 25° C. [3, 26]: 97.5%
KF germination rate, 5 days at 25° C. [3, 27]: 98.0%
KF germination rate, 5 days at 25° C. [3, 28]: 97.5%
KF germination rate, 5 days at 25° C. [3, 29]: 94.5%
KF germination rate, 5 days at 25° C. [3, 30]: 95.5%
KF germination rate, 5 days at 25° C. [3, 31]: 96.0%
KF germination rate, 5 days at 25° C. [3, 32]: 95.5%
KF germination rate, 5 days at 25° C. [3, 33]: 97.0%
ΔKF [3, 4]: 0.0%
ΔKF [3, 5]: −1.5%
ΔKF [3, 6]: −0.5%
ΔKF [3, 7]: −1.0%
ΔKF [3, 8]: 0.0%
ΔKF [3, 9]: 1.5%
ΔKF [3, 10]: 1.5%
ΔKF [3, 11]: 0.0%
ΔKF [3, 12]: −1.0%
ΔKF [3, 13]: 1.0%
ΔKF [3, 14]: 2.0%
ΔKF [3, 15]: −0.5%
ΔKF [3, 16]: −2.0%
ΔKF [3, 17]: −1.5%
ΔKF [3, 18]: 1.5%
ΔKF [3, 19]: −2.0%
ΔKF [3, 20]: 2.0%
ΔKF [3, 21]: 2.0%
ΔKF [3, 22]: 1.5%
ΔKF [3, 23]: 1.0%
ΔKF [3, 24]: 0.0%
ΔKF [3, 25]: 0.5%
ΔKF [3, 26]: −1.0%
ΔKF [3, 27]: −0.5%
ΔKF [3, 28]: −1.0%
ΔKF [3, 29]: 0.0%
ΔKF [3, 30]: 1.0%
ΔKF [3, 31]: 1.5%
ΔKF [3, 32]: 1.0%
ΔKF [3, 33]: 2.5%
ΔKF [3, 34]: 0.3%
ΔKF [3, 35]: 0.5%
ΔKF [3, 36]: 0.0%
ΔKF [3, 37]: −0.2%
ΔKF [3, 38]: 0.8%
ΔKF [3, 39]: −1.0%
ΔKF [3, 40]: 0.3%
ΔKF [3, 41]: 0.8%
ΔKF [3, 42]: 0.3%
ΔKF [3, 43]: 0.5%
ΔKF [3, 44]: 0.7%
ΔKF [3, 45]: 1.0%
ΔKF [3, 46]: −0.5%
ΔKF [3, 47]: −0.7%
ΔKF [3, 48]: 0.0%
ΔKF [3, 49]: 1.0%
ΔKF [3, 50]: 0.3%
ΔKF [3, 51]: −0.2%
ΔKF [3, 52]: −0.2%
ΔKF [3, 53]: 2.0%
KF germination rate, 5 days at 25° C. [3, 34]: 96.9%
KF germination rate, 5 days at 25° C. [3, 35]: 97.2%
KF germination rate, 5 days at 25° C. [3, 36]: 96.7%
KF germination rate, 5 days at 25° C. [3, 37]: 96.4%
KF germination rate, 5 days at 25° C. [3, 38]: 97.5%
KF germination rate, 5 days at 25° C. [3, 39]: 95.3%
KF germination rate, 5 days at 25° C. [3, 40]: 96.5%
KF germination rate, 5 days at 25° C. [3, 41]: 97.0%
KF germination rate, 5 days at 25° C. [3, 42]: 96.5%
KF germination rate, 5 days at 25° C. [3, 43]: 96.8%
KF germination rate, 5 days at 25° C. [3, 44]: 98.3%
KF germination rate, 5 days at 25° C. [3, 45]: 98.5%
KF germination rate, 5 days at 25° C. [3, 46]: 97.0%
KF germination rate, 5 days at 25° C. [3, 47]: 96.8%
KF germination rate, 5 days at 25° C. [3, 48]: 97.5%
KF germination rate, 5 days at 25° C. [3, 49]: 97.3%
KF germination rate, 5 days at 25° C. [3, 50]: 96.5%
KF germination rate, 5 days at 25° C. [3, 51]: 96.0%
KF germination rate, 5 days at 25° C. [3, 52]: 96.0%
KF germination rate, 5 days at 25° C. [3, 53]: 98.3%
